Here are results for 19 compounds from patent publication US10112937B2, “P2X7 modulators and methods of use” (Janssen Pharmaceutica NV, priority 2013, dated 2018).

One may read the pIC50 as −log10 of the IC50, conventionally taken in molar units.

pIC50: −log10 of the molar value.

Type in all cases: cell-based
For assay [1], the target named is T1, human P2X7 (Homo sapiens (Human), UniProt Q99572). Briefly: Ca2+ flux (FLIPR) in 1321N1 cells expressing recombinant human P2X7.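 Further: cells loaded with Calcium-4 dye, preincubated with test compound for 30 min, fluorescence change read 180 s after agonist addition.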 The note with it: 1321N1 cells, recombinant human P2X7, 250 μM BzATP. In general terms: A change in cytosolic calcium serves as a functional read-out for many receptors and channels.
The target in assay [2] is T1, human P2X7. Briefly: P2X7 antagonism in human PBMCs (IL-1β release after LPS + Bz-ATP, ELISA). The conditions noted are these: human PBMCs; for PBMC 10 μM (% control): test compound 10 μM; for PBMC 1 μM (% control): test compound 1 μM.
For another assay, the target named is rat P2X7 (Rattus norvegicus (Rat), UniProt Q64663). Briefly: Ca2+ flux (FLIPR) in 1321N1 cells expressing recombinant rat P2X7.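 Further: Calcium-4 dye fluorescence change read 180 s after agonist addition, with cells preincubated 30 min with compound and dye in 96-well plates.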 The note with it: 1321N1 cells, recombinant rat P2X7, 250 μM BzATP.
Chain of rat P2X7 (Q64663 whole entry): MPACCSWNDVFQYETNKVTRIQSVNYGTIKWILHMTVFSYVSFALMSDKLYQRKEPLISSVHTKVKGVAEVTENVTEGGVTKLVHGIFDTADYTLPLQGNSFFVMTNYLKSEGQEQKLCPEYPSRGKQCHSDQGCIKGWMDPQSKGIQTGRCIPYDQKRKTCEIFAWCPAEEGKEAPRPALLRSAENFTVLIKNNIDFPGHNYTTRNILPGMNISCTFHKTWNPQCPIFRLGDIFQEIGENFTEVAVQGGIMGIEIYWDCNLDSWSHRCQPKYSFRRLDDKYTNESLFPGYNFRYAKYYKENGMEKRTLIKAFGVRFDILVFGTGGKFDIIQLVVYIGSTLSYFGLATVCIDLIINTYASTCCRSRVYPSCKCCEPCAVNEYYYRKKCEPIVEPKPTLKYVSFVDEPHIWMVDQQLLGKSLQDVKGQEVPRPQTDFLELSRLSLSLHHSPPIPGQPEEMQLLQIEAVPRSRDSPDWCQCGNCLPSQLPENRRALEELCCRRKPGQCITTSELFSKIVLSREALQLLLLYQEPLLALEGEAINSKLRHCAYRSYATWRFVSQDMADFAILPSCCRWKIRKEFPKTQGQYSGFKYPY

T1 sequence (Q99572 whole entry): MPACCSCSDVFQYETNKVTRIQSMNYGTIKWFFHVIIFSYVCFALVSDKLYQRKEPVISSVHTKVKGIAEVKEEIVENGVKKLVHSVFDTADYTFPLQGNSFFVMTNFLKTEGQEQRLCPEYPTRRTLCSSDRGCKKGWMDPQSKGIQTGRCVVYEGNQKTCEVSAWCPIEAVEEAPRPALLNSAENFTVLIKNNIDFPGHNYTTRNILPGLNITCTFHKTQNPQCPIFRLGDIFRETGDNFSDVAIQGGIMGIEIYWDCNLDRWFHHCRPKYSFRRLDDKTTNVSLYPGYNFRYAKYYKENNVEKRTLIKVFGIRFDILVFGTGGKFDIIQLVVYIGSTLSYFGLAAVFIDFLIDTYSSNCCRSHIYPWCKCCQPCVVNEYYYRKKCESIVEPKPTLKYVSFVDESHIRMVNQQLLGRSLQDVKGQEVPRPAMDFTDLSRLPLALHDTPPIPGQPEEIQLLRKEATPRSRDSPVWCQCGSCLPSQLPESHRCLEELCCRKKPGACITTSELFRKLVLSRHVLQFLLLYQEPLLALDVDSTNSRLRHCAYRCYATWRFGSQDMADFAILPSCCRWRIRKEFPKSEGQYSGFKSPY
Procedure for rat P2X7: P2X7 Antagonism in Recombinant Human P2X7 Cells or Recombinant Rat P2X7 Cells: (a) Ca^2+ Flux and (b) Radioligand Binding
1321N1 cells expressing the recombinant human or rat P2X7 channel was cultured in HyQ DME/(HyClone/Dulbecco's Modified Eagle Medium) high glucose supplemented with 10% Fetal Bovine Serum (FBS) and appropriate selection marker. Cells were seeded at a density of 25000 cells/well (96-well clear bottom black walled plates) in 100 μl volume/well. On the day of the experiment, cell plates were washed with assay buffer, containing (in mM): 130 NaCl, 2 KCl, 1 CaCl2, 1 MgCl2, 10 HEPES, 5 glucose; pH 7.40 and 300 mOs. After the wash, cells were loaded with the Calcium-4 dye (Molecular Device) and incubated in the dark for 60 minutes. Test compounds were prepared at 250× the test concentration in neat DMSO. Intermediate 96-well compound plates were prepared by transferring 1.2 μL of the compound into 300 μL of assay buffer. A further 3× dilution occurred when transferring 50 μL/well of the compound plate to 100 μL/well in the cell plate. Cells were incubated with test compounds and dye for 30 minutes. […] The fluorescence change was measured 180 seconds after adding the agonist.

Regarding `O=C(c1cccc(C(F)(F)F)c1Cl)N1CCc2c(ncn2-c2ccccn2)C1` [Example 1, (2-Chloro-3-(trifluoromethyl)phenyl)(1-(pyridin-2-yl)-6,7-dihydro-1H-imidazo[4,5-c]pyridin-5(4H)-yl)methanone], the pIC50 at human P2X7 [1] is 8.39.

In the case of `O=C(c1cccc(C(F)(F)F)c1Cl)N1CCc2c(nnn2-c2ncc(F)cn2)C1` [Example 64, 5-{[2-Chloro-3-(trifluoromethyl)phenyl]carbonyl}-1-(5-fluoropyrimidin-2-yl)-4,5,6,7-tetrahydro-1H-[1,2,3]triazolo[4,5-c]pyridine], at human P2X7 [2], the “PBMC 10 μM (% control)” value is −9.2 % control. Also, the pIC50 at human P2X7 [1] is 7.64.

Take `Cc1c(C(=O)N2CCc3c(ncn3-c3ccc(F)cn3)C2C)cccc1C(F)(F)F` (centres unmarked) [Example 263, (1-(5-fluoropyridin-2-yl)-4-methyl-6,7-dihydro-1H-imidazo[4,5-c]pyridin-5(4H)-yl)(2-methyl-3-(trifluoromethyl)phenyl)methanone]: the “PBMC 10 μM (% control)” value at human P2X7 [2] is −1.6 % control. For the same compound, the pIC50 on human P2X7 [1] is 7.76.

Regarding `CC1c2ncn(-c3ccc(F)cn3)c2CCN1C(=O)c1ccc(F)c(Cl)c1Cl` (centres unmarked) [Example 261, (2,3-dichloro-4-fluorophenyl)(1-(5-fluoropyridin-2-yl)-4-methyl-6,7-dihydro-1H-imidazo[4,5-c]pyridin-5(4H)-yl)methanone], on human P2X7 [2], the “PBMC 10 μM (% control)” value is listed as −3.1 % control. Moreover, the negative logarithm of the IC50 (pIC50) on human P2X7 [1] is 7.53.

Regarding `CCOC(=O)C1c2ncn(-c3ccccn3)c2CCN1C(=O)c1cccc(Cl)c1Cl` (centres unmarked) [Example 25, Ethyl 5-(2,3-dichlorobenzoyl)-1-(pyridin-2-yl)-4,5,6,7-tetrahydro-1H-imidazo[4,5-c]pyridine-4-carboxylate], the “PBMC 1 μM (% control)” value at human P2X7 [2] is listed as 9.7 % control. Further, the pIC50 at human P2X7 [1] is 6.85.

As to `O=C(OCC1c2ncn(-c3ccccc3)c2CCN1C(=O)c1cccc(C(F)(F)F)c1Cl)c1cccc(C(F)(F)F)c1Cl` (centres unmarked) [Example 36, (5-{[2-Chloro-3-(trifluoromethyl)phenyl]carbonyl}-1-phenyl-4,5,6,7-tetrahydro-1H-imidazo[4,5-c]pyridin-4-yl)methyl 2-chloro-3-(trifluoromethyl)benzoate], the pIC50 on human P2X7 [1] is 5.47.

Consider `Cc1c(C(=O)N2CCc3c(ncn3-c3ccc(F)cn3)C2)cccc1C(F)(F)F` [Example 312, (1-(5-fluoropyridin-2-yl)-6,7-dihydro-1H-imidazo[4,5-c]pyridin-5(4H)-yl)(2-methyl-3-(trifluoromethyl)phenyl)methanone], for which the “PBMC 10 μM (% control)” value at human P2X7 [2] came to 9.5 % control. On human P2X7 [1], the negative-log IC50 (pIC50) is 6.94.

For the compound `O=C(c1cccc(C(F)(F)F)c1Cl)N1CCc2c(nnn2-c2ccn[nH]2)C1` [Example 68, 5-{[2-Chloro-3-(trifluoromethyl)phenyl]carbonyl}-1-(1H-pyrazol-5-yl)-4,5,6,7-tetrahydro-1H-[1,2,3]triazolo[4,5-c]pyridine], the negative logarithm of the IC50 (pIC50) on human P2X7 [1] was 7.40; on rat P2X7, 6.68.

For the compound `Cc1ccnc(-n2nnc3c2CCN(C(=O)c2cccc(OC(F)(F)F)c2)C3C)c1` (centres unmarked) [Example 375, (4-methyl-1-(4-methylpyridin-2-yl)-6,7-dihydro-1H-[1,2,3]triazolo[4,5-c]pyridin-5(4H)-yl)(3-(trifluoromethoxy)phenyl)methanone], the “PBMC 10 μM (% control)” value on human P2X7 [2] amounted to 63.3 % control. The pIC50 on human P2X7 [1] is under 5.00.

As for `Cc1cc(-n2nnc3c2CCN(C(=O)c2cccc(C(F)(F)F)c2Cl)C3C)ncn1` (centres unmarked) [Example 402, (2-chloro-3-(trifluoromethyl)phenyl)(4-methyl-1-(6-methylpyrimidin-4-yl)-6,7-dihydro-1H-[1,2,3]triazolo[4,5-c]pyridin-5(4H)-yl)methanone], at human P2X7 [2], the “PBMC 10 μM (% control)” value stood at 0.3 % control. Besides, the negative logarithm of the IC50 (pIC50) at human P2X7 [1] was 6.06.

As to `O=C(C1c2ncn(-c3ccccn3)c2CCN1C(=O)c1cccc(C(F)(F)F)c1Cl)N1CCC1` (centres unmarked) [Example 35, 4-(Azetidin-1-ylcarbonyl)-5-{[2-chloro-3-(trifluoromethyl)phenyl]carbonyl}-1-pyridin-2-yl-4,5,6,7-tetrahydro-1H-imidazo[4,5-c]pyridine], the figures for the pIC50 on human P2X7 [1] and at rat P2X7 were 6.46 and 6.63, respectively.

Turning to `CCOC(=O)C1c2ncn(-c3cnccn3)c2CCN1C(=O)c1cccc(Cl)c1Cl` (centres unmarked) [Example 29, Ethyl 5-[(2,3-dichlorophenyl)carbonyl]-1-pyrazin-2-yl-4,5,6,7-tetrahydro-1H-imidazo[4,5-c]pyridine-4-carboxylate], the values for the negative logarithm of the IC50 (pIC50) at human P2X7 [1] and at rat P2X7 were 7.21 and 5.60, respectively.

Consider `O=C(c1cccc(C(F)(F)F)c1F)N1CCc2c(ncn2-c2ccc(F)cn2)C1` [Example 314, (2-fluoro-3-(trifluoromethyl)phenyl)(1-(5-fluoropyridin-2-yl)-6,7-dihydro-1H-imidazo[4,5-c]pyridin-5(4H)-yl)methanone], for which the negative logarithm of the IC50 (pIC50) on human P2X7 [1] is 5.45.

As to `CC1c2ncn(-c3ncccc3F)c2CCN1C(=O)c1cccc(C(F)(F)F)c1Cl` (centres unmarked) [Example 21, (2-Chloro-3-(trifluoromethyl)phenyl)(1-(3-fluoropyridin-2-yl)-4-methyl-6,7-dihydro-1H-imidazo[4,5-c]pyridin-5(4H)-yl)methanone], the “PBMC 10 μM (% control)” value at human P2X7 [2] is 1.6 % control. Further, the negative-log IC50 (pIC50) on human P2X7 [1] is 7.05.

With `CCC1c2ncn(-c3cnccn3)c2CCN1C(=O)c1cccc(C(F)(F)F)c1Cl` (centres unmarked) [Example 15, (2-Chloro-3-(trifluoromethyl)phenyl)(4-ethyl-1-(pyrazin-2-yl)-6,7-dihydro-1H-imidazo[4,5-c]pyridin-5(4H)-yl)methanone], the “PBMC 1 μM (% control)” value on human P2X7 [2] stood at 9.1 % control. Further, the negative-log IC50 (pIC50) on human P2X7 [1] is 7.09.

In the case of `CC1c2ncn(-c3ccc(F)cn3)c2CCN1C(=O)c1ccc(F)cc1Cl` (centres unmarked) [Example 256, (2-chloro-4-fluorophenyl)(1-(5-fluoropyridin-2-yl)-4-methyl-6,7-dihydro-1H-imidazo[4,5-c]pyridin-5(4H)-yl)methanone], the “PBMC 10 μM (% control)” value at human P2X7 [2] is 7.1 % control. Also, the pIC50 on human P2X7 [1] is 5.36.

As to `O=C(c1ccc(Cl)cc1Cl)N1CCc2c(ncn2-c2ccc(F)cn2)C1` [Example 313, (2,4-dichlorophenyl)(1-(5-fluoropyridin-2-yl)-6,7-dihydro-1H-imidazo[4,5-c]pyridin-5(4H)-yl)methanone], the “PBMC 10 μM (% control)” value at human P2X7 [2] is −5.4 % control. Further, the pIC50 at human P2X7 [1] was 6.06.

As to `Cc1ccnc(-n2nnc3c2CCN(C(=O)c2cccc(OC(F)(F)F)c2)C3C)c1` (single isomer, unassigned) [Example 377, (S*)-(4-methyl-1-(4-methylpyridin-2-yl)-6,7-dihydro-1H-[1,2,3]triazolo[4,5-c]pyridin-5(4H)-yl)(3-(trifluoromethoxy)phenyl)methanone], the “PBMC 10 μM (% control)” value at human P2X7 [2] was 8.1 % control. Further, the pIC50 on human P2X7 [1] was 5.26.

For `O=C(c1cccc(C(F)(F)F)c1Cl)N1CCc2c(ncn2-c2ccccn2)C1CF` (centres unmarked) [Example 32, (2-Chloro-3-(trifluoromethyl)phenyl)(4-(fluoromethyl)-1-(pyridin-2-yl)-6,7-dihydro-1H-imidazo[4,5-c]pyridin-5(4H)-yl)methanone], the “PBMC 10 μM (% control)” value on human P2X7 [2] was determined as 1.9 % control. Moreover, the negative-log IC50 (pIC50) at rat P2X7 is 7.32.
